Results on five compounds are retold here after paper PMC9458062, “^131I-C19 Iodide Radioisotope and Synthetic I-C19 Compounds as K-Ras4B–PDE6δ Inhibitors: A Novel Approach against Colorectal Cancer—Biological Characterization, Biokinetics and Dosimetry” (Molecules, 2022).

For orientation: IC50 means the concentration at which inhibition is half-maximal.

SMILES strings stand for the structures.

In data set [1] the test system is bone marrow polychromatic erythrocytes. Kind of data set: Genotoxicity, bone marrow micronucleus assay. Conditions: 24 h, per 2000 PCEs (vehicle 7 ± 2).
Protocol: The test compounds were intraperitoneally administered once, as a solution, at a concentration of 15 mg/kg of 5-fluorouracil (5-Fu) and 30 mg/kg of C19 or I-C19. Bone marrow cells were obtained 24 h after treatment and stained with Giemsa-Wright (Diff-Quick; Harleco; Gibbstown, NJ, USA). Two-thousand polychromatic erythrocytes were counted per animal using an optical microscope at 100× magnification to determine the number of micronucleated polychromatic erythrocytes.
In the next data set the test system is colon adenocarcinoma. Kind of data set: AOM/DSS colorectal cancer mouse model. The following applies: AOM/DSS mice. The data set is classed as in vivo, C57BL/6 male mice.
The subject of another data set is CCD-18Co. The arrangement: method as in PMID 30382908. Conditions: CCD-18Co healthy cell line; cited from earlier work.
The test system of a further data set is micronuclei. Conditions: mice, 30 mg/kg; cited from earlier work.
In data set [2] the test system is CMT93 (mice colorectal cancer) allograft tumors. Set-up: method as in PMID 19569179. Conditions: 30 min post-injection; cited from earlier work.
Data set [3] deals with colorectal cancer cell lines. The data set is described as follows: Cell uptake, initial. It is filed as cell-based, human. Conditions: before the 3 h increase. As to the method:
(§1) The HCT116, LoVo and SW620 cells were seeded in 48-well tissue culture plates at a density of 10^5 cells/well. After 24 h, the cells were exposed to 1.44 Bq/cell of ^131I-C19 (200 μL) at 37 °C for 1, 3 and 5 h. After treatment, two washes (1 mL of ice-cold PBS) were performed. For the calculation of the cell uptake, the cells in each well were treated (at room temperature for 5 min) with 500 μL of glycine buffer (50 mM, pH 2.8). Then, this fraction was removed, and the radioactivity was measured in a NaI (Tl) detector (BCL, San Rafael CA, USA). To evaluate the ^131I-C19 internalization, the cells were incubated with 1 mL of NaOH 0.3 M (at room temperature for 10 min). Once more, the radioactivity was measured in a NaI (Tl) detector (BCL, San Rafael CA, USA). A 100% standard solution (200 μL) of ^131I-C19 was also measured (n = 5). The uptake (%) (plasmatic membrane) and internalization (%) (cytoplasm) were used to obtain the radiation absorbed dose.

For the next data set, the system named is γ-H2AX foci in SW620. The data set is described as follows: DNA double-stranded breaks, γ-H2AX foci assay. Conditions: SW620, 6.8 µM, 3 h. The data set is classed as cell-based, human. The protocol:
(§2) For the evaluation of DNA double-stranded breaks (DSBs), the phosphorylation of the Ser-139 gamma histone variant H2AX (γH2AX) was used as a biomarker. Cells, diluted to a suitable concentration, were grown on a glass slide after exposure to I-C19 or ^131I-labeled C19 (1.8, 6.8 and 8.8 µM for the cell lines LoVo, SW620 and HCT116, respectively) for 3 h. The anti-phospho-histone H2A.X (ser139) (1:200; CST, Boston, MA, USA) antibody was used as the primary antibody. The Alexa-488-conjugated anti-rabbit IgG was used for the visualization of γH2AX. […] To quantify the foci, clear and easily distinguishable dots were counted. At least 30 cells were imaged per slide, and the average number of foci per cell was calculated.

In another data set the test system is γ-H2AX foci in LoVo. The data set is described as follows: DNA double-stranded breaks, γ-H2AX foci assay. It is filed as cell-based, human. Conditions: 1.8 µM, 3 h. The protocol: as §2
The test system of the next data set is γ-H2AX foci in HCT116. Kind of data set: DNA double-stranded breaks, γ-H2AX foci assay. It is filed as cell-based, human. As to the method:
as §2

Data set [4] can be described thus: Biodistribution and biokinetic models. It is filed as in vivo, Nu/Nu mice with LoVo xenograft tumors. The protocol: ^131I-C19 was intraperitoneally injected (200 µL, 5 MBq (135 µCi/mice)) into nu/nu mice. The mice (n = 3) were euthanized at 0.5, 1, 3, 5, 24, 48, 92 and 144 h post-injection. Whole tumor, lung, liver, pancreas, spleen, kidney, large intestine (colon) and blood were rinsed and placed into pre-weighed plastic test tubes. The activity was determined in a NaI(Tl) detector (Canberra) along with three 0.5 mL aliquots of the diluted standard, representing 100% of the injected activity and used for radioactive decay correction. Mean activity values in each organ were correlated with those of the standard (representing the initial injected activity) to obtain the percentage of injected dose (% ID) at different times. The % ID values of each organ or tumor were input into the Olinda/EXM 2.0 software and adjusted to exponential functions (first-order kinetics) to obtain biokinetic models corrected by radioactive decay ( qh(t) ) (Equation (2)), which corresponded to the I-C19 compound. Likewise, the Ah(t) functions, which corresponded to the ^131I-C19 biokinetic models, were obtained considering λeff as =λB+λR , where the biological constant is represented by λB and the ^131I − radioactive decay constant is λR (Equation (3)). (2) qh(t)=Ah(t)×e^λR = Be^(−λBb)t+Ce^(−λBc)t+De^(−λBd)t (3) Ah(t)=Be^−(λBb+λR)t+Ce^−(λBc+λR)t+De^−(λBd+λR)t

Data set [5] relates to HCT116. Kind of data set: Cell uptake, internalization and radiation absorbed dose to the nucleus. The data set is classed as cell-based, human. Conditions: for total uptake in the cell membrane (of the total radioactivity): 1.44 Bq/cell. As to the method:
as §1
(§3) For estimation of the radiation absorbed doses to the HCT116, LoVo and SW620 cells’ nuclei, Equation (1) was used:(1) DN←source=(NCS×DFN←CS)+(NCy×DFN←Cy) where DN←source denotes the mean absorbed dose to the nucleus from source regions (i.e., cell surface—CS; cytoplasm—Cy); NCS and NCy are the total nuclear transformations occurring in the membrane and cytoplasm, respectively, calculated from the mathematical integration (from t = 0 to t = ∞) of the activity estimated in the internalization and cell uptake experiments; DFN←CS and DFN←Cy represent the dose factors specific for [^131I] from the cell surface (plasmatic membrane) and cytoplasm regions to the nucleus configuration. The dose factor geometries were obtained from S values (HCT116 cell radius = 10 μm, nucleus radius = 5 μm; LoVo and SW620 cell radius = 10 μm, nucleus radius = 6 μm).

Data set [6] has as its system SW620. The data set is described as above. It is filed as cell-based, human. The following applies: for total uptake in the cell membrane (of the total radioactivity): 1.44 Bq/cell. As to the method: as §1, §3
Data set [7] has as its system LoVo. Described as above. The data set is classed as cell-based, human. Conditions: for total uptake in the cell membrane (of the total radioactivity): 1.44 Bq/cell. As to the method: as §1, §3
Data set [8] relates to HCT116. Kind of data set: XTT cell viability. It is filed as cell-based, human. Conditions: HCT116, 8.8 µM, 1.44 Bq/cell, 72 h. The protocol: (§4) The human CRC cell lines, LoVo (ATCC® CCL-229™), SW620 (ATCC® CCL-227™) and HCT116 (ATCC® CCL-247™), were acquired from ATCC and cultured in F12K medium (Kaighn’s Modification of Ham’s F-12 Medium), DMEM-F12 medium and RPMI-1640 medium, (ATCC, Manassas, VA, USA), respectively. The human colorectal fibroblast CCD-18Co line was grown in an EMEM medium (ATCC, Manassas, VA, USA). The media were added with 10% fetal bovine serum and a 1% penicillin/streptomycin solution. Cells were incubated at 37 °C in a humidified atmosphere of 5% CO2.
(§5) The CCD-18Co, SW620, LoVo and HCT116 cell lines were plated in 96-well plates at a density of 10^4 cells/well for 24 h to allow for adherence. Then, the cells were treated with the I-C19 compound for 72 h. Cell viability was evaluated by the XTT (2,3-bis[2-methoxy-4-nitro-5-sulfophenyl]-2H-tetrazolium-5-carboxyanilide) assay kit (Roche, Germany), based on to the manufacturer’s instructions. The required I-C19 concentration, which produced fifty percent cell death at 72 h, was calculated by fitting a model with Prism software (GraphPad Software, San Diego, CA, USA).
(§6) For the assessment of dual therapy, beta radiation emission from ^131I-labeled C19 was also evaluated. The mitochondrial dehydrogenase activity in living HCT116, LoVo and SW620 cells was considered to measure the contribution of ^131I beta radiation to cell death, and the cell viability analysis was carried out after exposure to concentrations ten times lower than the IC50 obtained for each cancer cell line (8.8, 1.8 and 6.8 µM, respectively). Cell viability was evaluated by the XTT (2,3-bis[2-methoxy-4-nitro-5-sulfophenyl]-2H-tetrazolium-5-carboxyanilide) assay kit (Roche, Germany), based on to the manufacturer’s instructions. Briefly, colorectal cancer cell lines at a density of 10^4 cells/well were seeded in 96-well microtiter plates. The viability after treatment was measured 72 h (incubation in 5% CO2, 85% humidity and 37 °C). The absorbance in each well was recorded in a microplate reader (Epoch; BioTek Instruments; Winooski, VT, USA) at 450 nm. […]

Data set [9] relates to SW620. The data set is described as follows: XTT cell viability. It is filed as cell-based, human. The following applies: SW620, 6.8 µM, 1.44 Bq/cell, 72 h. As to the method:
as §4, §5, §6
Background: Tetrazolium assays rely on reduction of a dye to a coloured formazan, in cell work by metabolically active cells.

Data set [10] concerns LoVo. Kind of data set: XTT cell viability. The data set is classed as cell-based, human. Conditions: 1.8 µM, 1.44 Bq/cell, 72 h. The protocol:
as §4, §5, §6

Protocol for colon adenocarcinoma: Aberrant glands formed these lesions, and the cells that formed them presented atypical nuclei with evident nucleoli and loss of mucus production. The percentage of mice colorectal tissue affected with these lesions was considered as the percentage of colon adenocarcinoma in mice.
Six-week-old C57BL/6 male mice, with a weight of approximately 20 g, were intraperitoneally injected with a single dose of azoxymethane (AOM) (10 mg/kg). […] For the control group, the same procedure was performed with normal intraperitoneal saline and pure drinking water instead of the AOM/DSS treatment.
Paraffin sections of colon tumor samples were deparaffinized in xylene and rehydrated in a series of graded alcohols. Antigens were retrieved in 0.01 M sodium citrate buffer and 0.1M EDTA-Tris buffer (Novocastra™ Epitope Retrieval Solutions, cat. RE7113; Leica Biosystems). Samples were incubated in 0.9% H2O2 for 5 min, followed by 1 h of blocking in 1% BSA in PBS. […] Then, the samples were developed with the Betazoid DAB Chromogen Kit (Cat. BDB2004H; BIOCARE Medical), counter-stained with hematoxylin and mounted with synthetic resin solution (Entallan.107960; Merck).

On to `O=c1[nH]cc(F)c(=O)[nH]1` [5-Fu, 5-fluorouracil, reference compound], for which the “frequency of micronucleated polychromatic erythrocytes (MNPCEs)” value in data set [1] (15 mg/kg single intraperitoneal injection) is 27 ± 4.

For `COc1ccc(CN[C@@H](C)C(=O)Nc2cc(Cl)ccc2Cl)cc1OC` [C19, (2S)-N-(2,5-dichlorophenyl)-2-[(3,4-dimethoxyphenyl)methylamine]propanamide], the “percentage of colon adenocarcinoma” value in the data set on colon adenocarcinoma (30 mg/kg intraperitoneally every day for 12 days (vehicle 7–8%)) is on record as 5–6%. Besides, in the data set on colon adenocarcinoma (30 mg/kg, 12 days (vehicle 65%)), the “CEA marker, IHC” value is on record as 12.5 % of neoplastic tissue. The IC50 with CCD-18Co was 60.8 µM. Further, the “frequency of micronucleated polychromatic erythrocytes (MNPCEs)” value in [1] (30 mg/kg single intraperitoneal injection, not significant) was determined as 12 ± 1.

`O=P1(N(CCCl)CCCl)NCCCO1` (stereo not drawn) [CP, Cyclophosphamide]: in the data set on micronuclei, the induction of micronuclei entry is recorded as “strong”.

Turning to `[125I-].[Na+]` [Na[^125I]], in data set [2], the “activity in tumor tissue” value is reported as 9.1 % ID/g.

Turning to `COc1ccc(CNC(C)C(=O)Nc2cc([131I])ccc2[131I])cc1OC` (stereo not drawn) [^131I-C19], the initial uptake in data set [3] was 3.28–3.6%. Moreover, the “γ-H2AX foci increase, ^131I-C19 vs. I-C19 at the same concentration” value with γ-H2AX foci in SW620 was 2.3 times; with γ-H2AX foci in LoVo it was 2.1 times. Also, the “γ-H2AX foci, ^131I-C19 vs. I-C19 at the same concentration” value in the data set with γ-H2AX foci in HCT116 (HCT116, 8.8 µM, 3 h) is recorded as “almost three times more γ-H2AX foci”. In addition, the “level of DSBs relative to the control” value with γ-H2AX foci in HCT116 (HCT116, exposure to ^131I beta radiation) is listed as “six times higher than the control”. Further, in data set [4] (LoVo tumor, after 1 h), the “activity concentration in the tumor tissue” value turned out to be 4.4 % ID/g. Also, the route of excretion result in [4] (biodistribution, 5 MBq intraperitoneal) is “renal and hepatobiliary excretion”. Besides, the “remaining fraction of activity cleared slowly from the blood” value in data set [4] (intraperitoneal, fitted biexponential model) is 10.2%. The “internalized activity into the cytoplasm” value in the data set with HCT116 [5] (HCT116, 3 h) was 2.45 ± 0.21%; with HCT116 [5] (HCT116, 5 h), 1.63 ± 0.05%; with SW620 [6] (SW620, 3 h), 2.66 ± 0.30%; in the data set with SW620 [6] (SW620, 5 h) it was 1.44 ± 0.14%; in the data set with LoVo [7] (3 h), 2.90 ± 0.82%; in the data set with LoVo [7] (5 h), 0.30 ± 0.04%. In addition, the “total uptake in the cell membrane (of the total radioactivity)” value in the data set on HCT116 [5] (HCT116, 3 h) is given as 43.6 ± 4.7%; in the data set on HCT116 [5] (HCT116, 5 h), 1.63 ± 0.34%; with SW620 [6] (SW620, 3 h) it was 45.6 ± 6.7%; in the data set with SW620 [6] (SW620, 5 h), 25.62 ± 4.71%; in the data set with LoVo [7] (3 h), 40.2 ± 6.4%; in the data set with LoVo [7] (5 h), 1.80 ± 0.18%. For the same compound, the “cell viability compared to unlabeled I-C19 at the same concentration” value with HCT116 [8], with SW620 [9] and with LoVo [10] was “viability significantly decreased” throughout.
